From PMC3799614, “Combinatorial Engineering of Dextransucrase Specificity” (PLoS ONE, 2013)

Tested on: T1, DSR-S vardel Δ4N (Thio-DSR-S vardel Δ4N-His)
T1 construct: gene dsrS; truncated form (variable region and part of C-terminal region deleted)
Assay: initial velocity, released fructose by HPLC
Format: biochemical, Leuconostoc mesenteroides
Details: 50 mM sodium acetate pH 5.2, 0.05 g/L CaCl2, 25 °C; 10-600 mM sucrose; fit with substrate inhibition
Description: initial velocity, released fructose by HPLC on DSR-S vardel Δ4N (Thio-DSR-S vardel Δ4N-His)

Km: 115.8 mM
SMILES: OC[C@H]1O[C@@](CO)(O[C@H]2O[C@H](CO)[C@@H](O)[C@H](O)[C@H]2O)[C@@H](O)[C@@H]1O [sucrose]
